Measurements taken from patent EP0942911B1, “BENZOPYRANOPYRROLE AND BENZOPYRANOPYRIDINE ALPHA-1 ADRENERGIC COMPOUNDS” (Abbott Laboratories, priority 1996, dated 1998).
Structures can show the parent of a compound that is named as a salt.

Tests used:
Test in all cases: biochemical
[1] = molecular target: T1, α-1A adrenoreceptor (rat submaxillary gland) (Rattus norvegicus, UniProt P43140); assay type: binding; conditions: [3H]-prazosin radioligand; rat submaxillary gland membranes; read-out: Radioligand Binding (Ki, nM) 1A (Rat)
T1 sequence (P43140 1-466): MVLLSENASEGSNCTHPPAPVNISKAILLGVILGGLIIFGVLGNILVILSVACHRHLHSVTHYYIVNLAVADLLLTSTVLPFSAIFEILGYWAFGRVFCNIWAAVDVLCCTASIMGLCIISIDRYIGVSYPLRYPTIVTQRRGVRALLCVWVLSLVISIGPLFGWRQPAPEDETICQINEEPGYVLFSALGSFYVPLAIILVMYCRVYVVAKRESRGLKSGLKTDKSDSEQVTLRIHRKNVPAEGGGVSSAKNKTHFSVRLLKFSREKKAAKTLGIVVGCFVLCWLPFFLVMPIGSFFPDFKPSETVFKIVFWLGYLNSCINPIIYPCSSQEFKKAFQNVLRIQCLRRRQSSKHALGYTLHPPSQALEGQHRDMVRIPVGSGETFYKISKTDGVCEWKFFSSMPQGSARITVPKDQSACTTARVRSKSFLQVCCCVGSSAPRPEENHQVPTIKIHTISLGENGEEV
In short: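 Radioligand binding to α-1A sites in membrane homogenates of rat submaxillary gland, run after Greengrass and Bremner. Bound radioactivity counted by liquid scintillation.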

α-1a adrenoreceptor = molecular target: T2, α-1a adrenoreceptor (Bos taurus, UniProt P18130); assay type: binding, bovine; conditions: [3H]-prazosin radioligand; cloned receptor in LTK cell membranes; read-out: Radioligand Binding (Ki, nM) 1a (Bovine)
T2 sequence (P18130 1-466): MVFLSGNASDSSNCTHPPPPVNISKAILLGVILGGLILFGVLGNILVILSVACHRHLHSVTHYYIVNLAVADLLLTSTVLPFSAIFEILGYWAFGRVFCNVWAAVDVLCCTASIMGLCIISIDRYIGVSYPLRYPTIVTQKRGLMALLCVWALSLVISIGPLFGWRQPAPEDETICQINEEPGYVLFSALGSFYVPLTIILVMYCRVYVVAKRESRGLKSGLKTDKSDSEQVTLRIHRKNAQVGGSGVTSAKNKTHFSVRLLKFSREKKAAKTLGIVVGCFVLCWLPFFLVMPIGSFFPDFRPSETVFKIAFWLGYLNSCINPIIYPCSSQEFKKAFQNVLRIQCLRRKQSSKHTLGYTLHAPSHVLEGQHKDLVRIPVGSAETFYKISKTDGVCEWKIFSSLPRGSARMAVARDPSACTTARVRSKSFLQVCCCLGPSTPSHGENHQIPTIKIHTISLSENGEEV
In short: (§1)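 Cloned α-1a (bovine), α-1b (hamster) and α-1d (rat) adrenoreceptors were stably expressed in mouse LTK fibroblasts; membranes from roller-bottle cultures were used. Native α-1A sites came from rat submaxillary gland. Radioligand binding followed Greengrass and Bremner, with liquid scintillation read-out.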

α-1b adrenoreceptor = molecular target: T3, α-1b adrenoreceptor (Mesocricetus auratus, UniProt P18841); assay type: binding, hamster; conditions: [3H]-prazosin radioligand; cloned receptor in LTK cell membranes; read-out: Radioligand Binding (Ki, nM) 1b (Hamster)
T3 sequence (P18841 1-515): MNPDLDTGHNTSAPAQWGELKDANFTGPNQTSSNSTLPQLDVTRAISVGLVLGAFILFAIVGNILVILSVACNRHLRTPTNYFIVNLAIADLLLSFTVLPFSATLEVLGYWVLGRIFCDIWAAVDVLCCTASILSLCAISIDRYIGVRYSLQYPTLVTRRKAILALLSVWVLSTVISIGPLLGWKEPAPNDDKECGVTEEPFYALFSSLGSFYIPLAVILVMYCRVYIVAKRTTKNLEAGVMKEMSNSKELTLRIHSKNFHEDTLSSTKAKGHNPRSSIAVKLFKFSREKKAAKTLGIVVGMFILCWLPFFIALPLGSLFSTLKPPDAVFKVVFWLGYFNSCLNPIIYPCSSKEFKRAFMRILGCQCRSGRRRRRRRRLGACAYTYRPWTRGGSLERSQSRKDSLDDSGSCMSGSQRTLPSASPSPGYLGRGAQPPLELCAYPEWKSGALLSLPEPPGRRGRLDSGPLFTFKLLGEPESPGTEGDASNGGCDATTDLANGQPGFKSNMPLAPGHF
In short: as §1

α-1d adrenoreceptor = molecular target: T4, α-1d adrenoreceptor (Rattus norvegicus, UniProt P23944); assay type: binding; conditions: [3H]-prazosin radioligand; cloned receptor in LTK cell membranes; read-out: Radioligand Binding (Ki, nM) 1d (Rat)
T4 sequence (P23944 1-561): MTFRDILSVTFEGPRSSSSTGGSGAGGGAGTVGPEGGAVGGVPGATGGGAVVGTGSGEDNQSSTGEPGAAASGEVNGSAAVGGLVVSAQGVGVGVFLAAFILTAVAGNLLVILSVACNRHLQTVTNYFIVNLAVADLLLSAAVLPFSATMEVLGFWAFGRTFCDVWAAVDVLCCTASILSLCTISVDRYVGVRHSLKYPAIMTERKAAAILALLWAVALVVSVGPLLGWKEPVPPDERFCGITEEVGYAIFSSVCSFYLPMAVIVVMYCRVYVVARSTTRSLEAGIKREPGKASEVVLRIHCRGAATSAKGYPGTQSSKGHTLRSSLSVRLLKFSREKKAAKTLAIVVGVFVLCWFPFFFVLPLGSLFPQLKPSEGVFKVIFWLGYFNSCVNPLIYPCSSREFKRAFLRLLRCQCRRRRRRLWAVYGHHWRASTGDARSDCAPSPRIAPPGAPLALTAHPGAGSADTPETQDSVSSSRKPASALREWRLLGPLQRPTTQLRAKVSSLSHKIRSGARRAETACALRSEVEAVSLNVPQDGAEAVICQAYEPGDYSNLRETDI
In short: as §1

Compound	Ki [1] [nM]	Ki (α-1a adrenoreceptor) [nM]	Ki (α-1b adrenoreceptor) [nM]	Ki (α-1d adrenoreceptor) [nM]
COc1ccc2c(n1)sc1c(=O)n(CCCCN3CC[C@H]4c5c(OC)cccc5OC[C@@H]4C3)c(=O)[nH]c12 [Example 103, 3-[4-((4aS,10bR)-trans-10-Methoxy-1,3,4,4a,5,10b-hexahydro-2H-[1]-benzopyrano[3,4-c]pyrido-3-yl)butyl]-7-methoxy-pyrido[3',2':4,5]thieno[3,2-d]pyrimidine-2,4(1H,3H)-dione hydrochloride]	0.909	0.115	3.33	0.243
COc1cccc2c1[C@@H]1CN(CCCCn3c(=O)[nH]c4c(sc5nccnc54)c3=O)C[C@H]1CO2 [Example 14, 3-[4-((3aS,9bR)-trans-9-Methoxy-1,2,3,3a,4,9b-hexahydro-[1]-benzopyrano[3,4-c]pyrrol-2-yl)butyl]-pyrazino[2',3':4,5]thieno[3,2-d]pyrimidine-2,4(1H,3H)-dione dihydrochloride]	0.105	0.038	1.37	0.145
COc1cccc2c1[C@@H]1CCN(CCCCn3c(=O)[nH]c4c(sc5ncc(-c6ccccc6)nc54)c3=O)C[C@H]1CO2 [Example 100, 3-[4-((4aS,10bR)-trans-10-Methoxy-1,3,4,4a,5,10b-hexahydro-2H-[1]-benzopyrano[3,4-c]pyrido-3-yl)butyl]-8-phenyl-pyrazino[2',3':4,5]thieno[3,2-d]pyrimidine-2,4(1H,3H)-dione hydrochloride]	30.5	5.83	27	7.59
COc1cccc2c1[C@@H]1CN(CCCCn3c(=O)[nH]c4c(sc5ccc(-c6cccnc6)nc54)c3=O)C[C@@H]1CO2 [Example 56, 3-[4-((3aR,9bR)-cis-9-Methoxy-1,2,3,3a,4,9b-hexahydro-[1]-benzopyrano[3,4-c]pyrrol-2-yl)butyl]-8-(3-pyridyl)-pyrido[2',3';4,5]thieno[3,2-d]pyrimidine-2,4(1H,3H)-dione dihydrochloride]	0.614	0.078	10.2	1.31
COc1cccc2c1[C@@H]1CN(CCCCn3c(=O)[nH]c4c(sc5c(Cl)ccnc54)c3=O)C[C@@H]1CO2 [Example 20, 3-[4-((3aR,9bR-cis-9-Methoxy-1,2,3,3a,4,9b-hexahydro-[1]-benzopyrano[3,4-c]pyrrol-2-yl)butyl]-6-chloro-pyrido[2',3':4,5]thieno[3,2-d]pyrimidine-2,4(1H,3H)-dione hydrochloride]	0.208	0.038	3.5	0.439
COc1cccc2c1[C@H]1CN(CCCCn3c(=O)[nH]c4c(sc5c(Cl)ccnc54)c3=O)C[C@@H]1CO2 [Example 5, 3-[4-((3aR,9bS)-trans-9-Methoxy-1,2,3,3a,4,9b-hexahydro-[1]-benzopyrano[3,4-c]pyrrol-2-yl)butyl]-6-chloro-pyrido[2',3':4,5]thieno[3,2-d]pyrimidine-2,4(1H,3H)-dione dihydrochloride]	0.268	0.086	2.01	0.638
COc1cccc2c1[C@@H]1CN(CCCCn3c(=O)[nH]c4c(sc5nccnc54)c3=O)C[C@@H]1CO2 [Example 15, 3-[4-((3aR,9bR)-cis-9-Methoxy-1,2,3,3a,4,9b-hexahydro-[1]-benzopyrano[3,4-c]pyrrol-2-yl)butyl]-pyrazino[2',3':4,5]thieno[3,2-d]pyrimidine-2,4(1H,3H)-dione dihydrochloride]	0.227	0.068	4.41	0.928
3-[2-((±)-trans-10-Methoxy-1,3,4,4a,5,10b-hexahydro-2H-[1]-benzopyrano[3,4-c]pyrido-3-yl)ethyl]-6,7-dimethoxy-quinazoline-2,4(1H,3H)-dione hydrochloride [Example 91]	0.102	0.066	1.46	0.495
COc1cnc2sc3c(=O)n(CCCCN4C[C@H]5COc6cccc(OC)c6[C@@H]5C4)c(=O)[nH]c3c2c1 [Example 55, 3-[4-((3aS,9bR)-trans-9-Methoxy-1,2,3,3a,4,9b-hexahydro-[1]-benzopyrano[3,4-c]pyrrol-2-yl)butyl]-8-methoxy-pyrido[3',2':4,5]thieno[3,2-d]pyrimidine-2,4(1H,3H)-dione hydrochloride]	0.111	0.103	1.46	0.02
COc1cccc2c1[C@@H]1CN(CCCCn3c(=O)[nH]c4c(sc5ccc(-c6cccnc6)nc54)c3=O)C[C@H]1CO2 [Example 58, 3-[4-((3aS,9bR)-trans-9-Methoxy-1,2,3,3a,4,9b-hexahydro-[1]-benzopyrano[3,4-c]pyrrol-2-yl)butyl]-8-(3-pyridyl)-pyrido[2',3':4,5]thieno[3,2-d]pyrimidine-2,4(1H,3H)-dione trihydrochloride]	0.273	0.188	2.08	0.039
COc1cccc2c1[C@@H]1CN(CCCCCn3c(=O)[nH]c4c(sc5ccccc54)c3=O)C[C@H]1CO2 [Example 23, 3-[5-((3aS,9bR)-trans-9-Methoxy-1,2,3,3a,4,9b-hexahydro-[1]-benzopyrano[3,4-c]pyrrol-2-yl)pentyl]-[1]benzthieno[3,2-d]pyrimidine-2,4(1H,3H)-dione hydrochloride]	0.743	0.046	0.973	0.639
COc1cccc2c1[C@H]1CN(CCCCn3c(=O)[nH]c4c(sc5cccnc54)c3=O)C[C@@H]1CO2 [Example 4, 3-[4-((3aR,9bS)-trans-9-Methoxy-1,2,3,3a,4,9b-hexahydro-[1]-benzopyrano[3,4-c]pyrrol-2-yl)butyl]-pyrido[2',3':4,5]thieno[3,2-d]pyrimidine-2,4(1H,3H)-dione hydrochloride]	0.097	0.049	0.867	0.377
COc1ccc(O)c2c1[C@@H]1CN(CCCCn3c(=O)[nH]c4c(sc5ncc(-c6ccccc6)nc54)c3=O)C[C@@H]1CO2 [Example 105, 3-[4-((3aR,9bR)-cis-6-Hydroxy-9-methoxy-1,2,3,3a,4,9b-hexahydro-[1]-benzopyrano[3,4-c]pyrrol-2-yl)butyl]-8-phenyl-pyrazino[2',3':4,5]thieno[3,2-d]pyrimidine-2,4(1H,3H)-dione]	26.3	6.42	1620	55.9
